Data reported in US20160221932A1, “Methods and Uses of Melatonin Ligands” (priority 2013, published 2016).
“Also recorded” adds a separate entry of the source.

Experiments:
[1] = system: rats with L5-L6 spinal nerves ligation; test: L5-L6 spinal nerves ligature model, von Frey paw withdrawal threshold; assay type: in vivo, rat; settings: for AUC of the antiallodynic effect across 8 h: mean±SEM, VEH 36.24±1.8 g
Method: (§1) Animals: Wistar rats (150-250 g, Charles-River Saint-Constant, Quebec, Canada) were used for the formalin test, hot plate test and L5-L6 spinal nerves ligature model. The animals were housed at constant room temperature and humidity under a 12 h light/dark cycle (lights on at 7 AM). Food and water were available ad libitum.
L5-L6 Spinal Nerves Ligature: Nerve injury results in abnormal pain perception, known as neuropathic pain, which is associated with hyperalgesia (high pain sensibility) and allodynia (pain perception induced by innocuous stimuli) (Campbell and Meyer, 2006). The rat model for neuropathic pain develop by Kim and Chung (Kim and Chung, 1992) was used in which the L5 and L6 spinal nerves were ligated and two weeks later allodynia was measured by paw stimulation with von Frey filaments. Briefly, animals were anesthetized with a mixture of ketamine/xylazine/acepromazine (i.p.). Following surgical preparation and exposure of the dorsal vertebral column, the left L5 and L6 spinal nerves were exposed and tightly ligated with 3.0 chromic catgut suture distal to the dorsal root ganglion. For sham-operated rats, the nerves were exposed but not ligated. The incisions were closed using 3.0 vicryl sutures, and the animals were allowed to recover for 13 days.
On day 14 after surgery, rats were singularly placed in a test chamber (clear plastic, wire mesh-bottomed cage) and allowed to acclimatize for 30-40 min. Von Frey filaments (Stoelting, Wood Dale, Ill., USA) were used to measure the 50% paw withdrawal threshold using the up and down method by (Chaplan et al., 1994). […] Lifting of the paw indicated a positive response and prompted the use of the next weaker filament, whereas absence of paw withdrawal after 5 s indicated a negative response and prompted the next filament of increasing weight. This paradigm continued for four more measurements after the initial change of the behavioral response, or until five consecutive negative (assigned a score of 15 g), or four consecutive positive (assigned a score of 0.25 g) responses. The resulting score were used to calculate the 50% response threshold by using the formula proposed by Dixon et al., 1980.
Allodynia was considered to be present when paw withdrawal thresholds were less than 4 g. (Chaplan et al., 1994). All nerve-ligated rats were verified to be allodynic, responding to a stimulus of less than 4 g. Rats without allodynia were excluded. Following the determination of the basal response, tactile allodynia was assessed at 0.5, 1, 2, 3, 4, 5, 6, 7 and 8 h post-administration for each treatment below described.
[…] […] Another group of rats received only the vehicle (VEH) consisting on a 70% DMSO/saline solution (0.9% NaCl). All treatments were administered in a single subcutaneous injection with a volume of 1 ml. Rats were tested at 0 h (basal withdrawal threshold) and 0.5, 1, 2, 3, 4, 5, 6, 7 and 8 h post-treatment administration.
(§2) Statistical Analysis: Data analysis was done using SigmaPlot 12 (Systat Software, Inc.). Two-way ANOVA for repeated measures was used to analyze data from L5-L6 models using treatments (between) and testing time (within) as factors. One-way ANOVA was used to analyze AUC in the L5-L6 spinal nerves ligation model. One-way ANOVA was used for formalin and hot-plate tests. Post-hoc analyses were performed using Bonferroni t-test comparisons or Student-Newman-Keuls (SNK) test. All data are expressed as mean±Standard Error of the Mean (SEM). P<0.05 was considered significant.

Wistar rats [2] = test: formalin test; assay type: in vivo, rat; settings: 30 min prior to test
Method: as §1
Formalin Test: Antinociception was assessed using the formalin test (Dubuisson and Dennis, 1977). Rats were placed in open Plexiglas observation chambers for 60 min to allow them to acclimatize to their surroundings; then they were removed for formalin administration. Rats were gently restrained while the dorsal surface of the right hindpaw was injected with […] of 1% formalin (37% formaldehyde solution further diluted in saline solution) with a 30-gauge needle. The animals were returned to the chambers and nociceptive behavior was observed immediately after formalin injection. Mirrors were placed in each chamber to enable unhindered observation. Licking/biting behavior directed to the formalin injected paw was scored in 5 min intervals considering number and duration of the licking. Cumulative behavior for the total duration of the test as well as the first (0-10 min) and second phase (20-50 min) was then analyzed (Sufka et al., 1998).The initial acute phase (0-10 min) was followed by a relatively short quiescent period, which was then followed by a prolonged tonic response (15-60 min). The first phase is considered to be the result of direct stimulation of nociceptors, whereas inflammation process contributes to phase 2 activity (Hunskaar and Hole, 1987). At the end of the experiment the rats were sacrificed in a CO2 chamber.
as §2

SNI rats = test: spared nerve injury (SNI) model, dynamic plantar aesthesiometer; assay type: in vivo, rat; settings: 150 mg/kg s.c.
Method: Spared nerve injury (SNI) of the sciatic nerve and measurement of allodynia with the dynamic plantar aesthesiometer. SNI was performed according to the method of Decosterd and Woolf (2000). Rats were anaesthetized with sodium pentobarbital (50 mg/kg i.p.). The sciatic nerve was exposed at mid-thigh level […] to the trifurcation and freed of connective tissue; the three peripheral branches (sural, common peroneal, and tibial nerves) of the sciatic nerve were exposed without stretching nerve structures. Both tibial and common peroneal nerves were ligated and transected together. The sham procedure consisted of the same surgery without ligation and transection of the nerves. Fourteen days after SNI, mechanical allodynia was measured using the dynamic plantar aesthesiometer (Ugo Basile, Varese, Italy). Each rat was placed and allowed to move freely in one of the two compartments of the enclosure positioned on a metal grid surface. A mechanical stimulus was delivered to the plantar surface of the rat's hind paw through the metal grid by a steel filament (Von Frey-type), connected to a movable touch-stimulator unit exerting an increasing force of 3 g per second. The force inducing paw withdrawal was recorded to the nearest 0.1 g. Nociceptive responses for mechanical sensitivity (mechanical withdrawal threshold) were measured in grams before and after vehicle or drug administration by an experimenter blind to the treatments. A single trial at each time point was performed on the ipsilateral hind paw to SNI surgery for each rat. Nociceptive responses for mechanical sensitivity were expressed as mean±SEM (g). Groups of 6-7 rats per treatment were used, with each animal being used for one treatment only.
as §2

Wistar rats [3] = test: hot plate test; assay type: in vivo, rat
Method: Animals: Wistar rats (150-250 g, Charles-River Saint-Constant, Quebec, Canada) were used for the formalin test, hot plate test and L5-L6 spinal nerves ligature model. The animals were housed at constant room temperature and humidity under a 12 h light/dark cycle (lights on at 7 AM). Food and water were available ad libitum. Hot plate test: The hot-plate test was performed by using an electronically controlled hot-plate (Ugo Basile, Italy). The initial temperature was 38° C. A near linear increase in temperature (3° C. per min) was obtained by turning the heating adjustment to maximum. The temperature at which the fast hindpaw lick occurred was recorded as the nociceptive end-point. If no hindpaw lick was observed, the test was terminated at 52° C., and this cut-off value was used in the analysis. The plate was wiped with a wet cloth, and a fan located behind the plate allowed rapid cooling so that testing could be conducted every 7.5 min. Statistical Analysis: Data analysis was done using SigmaPlot 12 (Systat Software, Inc.). Two-way ANOVA for repeated measures was used to analyze data from L5-L6 models using treatments (between) and testing time (within) as factors. One-way ANOVA was used to analyze AUC in the L5-L6 spinal nerves ligation model. One-way ANOVA was used for formalin and hot-plate tests. Post-hoc analyses were performed using Bonferroni t-test comparisons or Student-Newman-Keuls (SNK) test. All data are expressed as mean±Standard Error of the Mean (SEM). P<0.05 was considered significant.

[4] = biological target: T1, human-cloned MT2 receptors (Homo sapiens, UniProt P49286); test: cAMP assay in CHO cells expressing human-cloned MT2 (functional activity); assay type: cell-based; as to MT2 Activity: key: A = ago0nist; PA = partial agonist; ANT = antagonits
T1 construct: expressed in transfected cells
T1 sequence (P49286 1-362): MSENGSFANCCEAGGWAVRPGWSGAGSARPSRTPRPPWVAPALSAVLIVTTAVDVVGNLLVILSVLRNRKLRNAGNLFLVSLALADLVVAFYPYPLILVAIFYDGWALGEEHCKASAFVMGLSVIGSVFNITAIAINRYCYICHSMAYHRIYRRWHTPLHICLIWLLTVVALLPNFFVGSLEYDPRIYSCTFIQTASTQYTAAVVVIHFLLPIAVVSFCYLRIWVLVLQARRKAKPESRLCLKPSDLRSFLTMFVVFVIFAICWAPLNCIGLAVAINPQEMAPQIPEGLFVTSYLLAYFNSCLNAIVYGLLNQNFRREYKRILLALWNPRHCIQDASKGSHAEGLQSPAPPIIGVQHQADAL

human MT2 receptor = biological target: T2, human MT2 receptor (Homo sapiens, UniProt P49286); test: 2-[125I]iodomelatonin competition binding, human MT2 in CHO cells; settings: human MT2 stably expressed in CHO cells; calculated from IC50 by Cheng and Prusoff; read-out: MT2 pKi (converted)
T2 construct: expressed in transfected cells
T2 sequence (P49286 1-362): T1 sequence (P49286 1-362)

human-cloned MT1 = biological target: T3, human-cloned MT1 (Homo sapiens, UniProt P48039); test: impedance assay in CHO cells expressing human-cloned MT1 (functional activity); assay type: cell-based; as to MT1 Activity: key: A = ago0nist; PA = partial agonist; ANT = antagonits
T3 construct: expressed in transfected cells

human MT1 receptor = biological target: T4, human MT1 receptor (Homo sapiens, UniProt P48039); test: 2-[125I]iodomelatonin competition binding, human MT1 in CHO cells; settings: human MT1 stably expressed in CHO cells; calculated from IC50 by Cheng and Prusoff; read-out: MT1 pKi (converted)
T4 construct: expressed in transfected cells

[5] = 3 mg/kg s.c., listed as Ketoprofen
[6] = 3 mg/kg s.c., listed as ketoprofen

T3 sequence (P48039 whole entry): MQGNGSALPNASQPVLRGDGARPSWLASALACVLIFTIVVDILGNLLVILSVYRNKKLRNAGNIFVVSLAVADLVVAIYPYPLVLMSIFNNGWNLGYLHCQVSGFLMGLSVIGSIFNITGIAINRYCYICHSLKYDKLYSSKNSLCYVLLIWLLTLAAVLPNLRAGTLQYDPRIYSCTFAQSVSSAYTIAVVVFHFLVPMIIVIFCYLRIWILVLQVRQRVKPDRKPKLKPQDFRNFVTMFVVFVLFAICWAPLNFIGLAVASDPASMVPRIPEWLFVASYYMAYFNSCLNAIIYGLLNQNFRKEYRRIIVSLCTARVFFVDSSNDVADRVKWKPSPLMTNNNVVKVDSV
T4 sequence (P48039 whole entry): as above

SMILES: COc1ccc2[nH]cc(CCNC(C)=O)c2c1 [MLT, N-acetyl-5-methoxytryptamine, reference compound]
- maximum increase in withdrawal threshold ([1]; 150 mg/kg s.c., at 2 h post-treatment): 335 % from baseline
- AUC of the antiallodynic effect across 8 h ([1]; 150 mg/kg s.c.): 131.75±7.9
- licking time vs vehicle, first phase (Wistar rats [2]; 150 mg/kg s.c.): decreased the licking time
- licking time vs vehicle, second phase (Wistar rats [2]; 150 mg/kg s.c.): decrease of the licking time; also recorded: decreased the licking time
- licking time vs vehicle, total time (Wistar rats [2]; 150 mg/kg s.c.): decrease in the licking time; also recorded: decreased the licking time
- licking time vs vehicle, first phase (Wistar rats [2]; 150 mg/kg s.c., listed as Melatonin): decrease in the licking time
- effect on mechanical allodynia compared with GBP 100 mg/kg (SNI rats): lower magnitude than that produced by GBP
- withdrawal temperature vs vehicle (Wistar rats [3]; 150 mg/kg s.c., 30 min post treatment): significant increase of the withdrawal temperature
- withdrawal temperature vs vehicle (Wistar rats [3]; 150 mg/kg s.c., 1 hour post treatment): increase of withdrawal temperature; also recorded: increased the withdrawal temperature
- withdrawal temperature vs vehicle (Wistar rats [3]; 150 mg/kg s.c., 4 hours post treatment): increase the withdrawal temperature

SMILES: NCC1(CC(=O)O)CCCCC1 [GBP, gabapentin, reference compound]
- maximum withdrawal threshold increase ([1]; 100 mg/kg s.c., at 4 h): 420 % from basal
- AUC of the antiallodynic effect across 8 h ([1]; 100 mg/kg s.c.): 249.33 ± 22.1 g

SMILES: CC(=O)NCCN(c1ccccc1)c1cccc(OCCCCc2ccccc2)c1 [5i, N-{2-[(3-pheny/butoxyphenyl)-phenyl-amino]ethyl}acetamide]
- activity for the MLT receptor subtype MT2 (in words) ([4]; CHO cells): antagonist activity
- MT2 Activity ([4]; intrinsic activity, human MT2 in CHO cells): ANT
- Ki (human MT2 receptor): 331 nM
- activity for the MLT receptor subtype MT1 (in words) (human-cloned MT1; CHO cells): antagonist activity
- MT1 Activity (human-cloned MT1; intrinsic activity, human MT1 in CHO cells): ANT
- Ki (human MT1 receptor): 35.5 nM

SMILES: CC(=O)Nc1ccc(O)cc1 [ACE, Acetaminophen, reference compound]
- withdrawal temperature vs vehicle (Wistar rats [3]; 200 mg/kg s.c., 1 hour post treatment): increased the withdrawal temperature
- withdrawal temperature vs vehicle (Wistar rats [3]; 200 mg/kg s.c., 1 hour post treatment, listed as acetaminophen): increase of withdrawal temperature
- withdrawal temperature vs vehicle (Wistar rats [3]; 200 mg/kg s.c., 4 hours post treatment): increased the withdrawal temperature
- withdrawal temperature vs vehicle (Wistar rats [3]; 200 mg/kg s.c., 4 hours post treatment, listed as acetaminophen): increase the withdrawal temperature

SMILES: CCC(=O)NC1Cc2ccccc2C(c2ccccc2)C1 (centres unmarked) [4P-PDOT, reference compound]
- effect of pre-treatment with MT2 antagonist on antiallodynic effect of 5p ([1]; 4P-PDOT 10 mg/kg 10 min before 5p 20 mg/kg, 8 h of testing): blocked the effects of 5p

SMILES: CC(C(=O)O)c1cccc(C(=O)c2ccccc2)c1 (centres unmarked) [KET, Ketoprofen, reference compound]
- licking time vs vehicle, first phase (Wistar rats [2]; 3 mg/kg s.c.): decreased the licking time
- licking time vs vehicle, second phase (Wistar rats [2]; 3 mg/kg s.c.): decreased the licking time
- licking time vs vehicle, total time (Wistar rats [2]; 3 mg/kg s.c.): decreased the licking time
- licking time vs vehicle, first phase (Wistar rats [2]; [5]): decrease in the licking time
- licking time vs vehicle, second phase (Wistar rats [2]; [5]): decrease of the licking time
- licking time vs vehicle, total time (Wistar rats [2]; [5]): decrease in the licking time
- licking time vs vehicle, first phase (Wistar rats [2]; [6]): decrease in the licking time
- licking time vs vehicle, second phase (Wistar rats [2]; [6]): decrease of the licking time
- licking time vs vehicle, total time (Wistar rats [2]; [6]): decrease in the licking time
